System: Beet Armyworm (Spodoptera exigua)
Assay: Bioassay on Beet Armyworm (BAW), 128-well diet tray assay
Format: in vivo
Conditions: Table 3, Assays Results Part 1
Experimental: Certain molecules disclosed in this document were tested against BAW, CEW and CL using procedures described in the following examples. In the reporting of the results, the “BAW & CEW & CL Rating Table” was used (See Table Section).
Bioassays on BAW (Spodoptera exigua)
Bioassays on BAW were conducted using a 128-well diet tray assay. One to five second instar BAW larvae were placed in each well (3 mL) of the diet tray that had been previously filled with 1 mL of artificial diet to which 50 μg/cm^2 of the test compound (dissolved in 50 μL of 90:10 acetone-water mixture) had been applied (to each of eight wells) and then allowed to dry. Trays were covered with a clear self-adhesive cover, and held at 25° C., 14:10 light-dark for five to seven days. Percent mortality was recorded for the larvae in each well; activity in the eight wells was then averaged. The results are indicated in the tables entitled “Table 3: Assay Results Part 1” and “Table 4: Assay Results Part 2” (See Table Section).

| SMILES | BAW Rating |
| --- | --- |
| Cc1cc(/C=C/C(c2cc(Cl)cc(Cl)c2)C(F)(F)F)ccc1C(=O)NCc1ccc(Cl)nc1 (stereo not drawn) [AC7] | A (50-100) |
| Cc1cc(/C=C/C(c2cc(Cl)cc(Cl)c2)C(F)(F)F)ccc1C(=O)NCc1ccccc1F (stereo not drawn) [AC9] | A (50-100) |
| Cc1cc(/C=C/C(c2cc(Cl)cc(Cl)c2)C(F)(F)F)ccc1C(=O)NC1CSC1 (stereo not drawn) [AC10] | A (50-100) |
| Cc1cc(/C=C/C(c2cc(Cl)cc(Cl)c2)C(F)(F)F)ccc1C(=O)NCc1ccccc1 (stereo not drawn) [AC11] | A (50-100) |
| Cc1cc(/C=C/C(c2cc(Cl)cc(Cl)c2)C(F)(F)F)ccc1C(=O)NCc1ccccn1 (stereo not drawn) [AC12] | A (50-100) |
| Cc1cc(/C=C/C(c2cc(Cl)cc(Cl)c2)C(F)(F)F)ccc1C(=O)NC1CS(=O)(=O)C1 (stereo not drawn) [AC13] | A (50-100) |
| Cc1cc(/C=C/C(c2cc(Cl)cc(Cl)c2)C(F)(F)F)ccc1C(=O)NCc1cnc(Cl)s1 (stereo not drawn) [AC15] | A (50-100) |
| Cc1cc(/C=C/C(c2cc(Cl)cc(Cl)c2)C(F)(F)F)ccc1C(=O)NC(C)(C)c1ccccn1 (stereo not drawn) [AC16] | A (50-100) |
| Cc1cc(/C=C/C(c2cc(Cl)cc(Cl)c2)C(F)(F)F)ccc1C(=O)NNc1ccccc1F (stereo not drawn) [AC17] | A (50-100) |
| Cc1cc(/C=C/C(c2cc(Cl)cc(Cl)c2)C(F)(F)F)ccc1C(=O)NCc1ncccn1 (stereo not drawn) [AC18] | A (50-100) |
| Cc1cc(/C=C/C(c2cc(Cl)cc(Cl)c2)C(F)(F)F)ccc1C(=O)NCc1ccoc1 (stereo not drawn) [AC20] | A (50-100) |
| Cc1cc(/C=C/C(c2cc(Cl)c(Cl)c(Cl)c2)C(F)(F)F)ccc1C(=O)NCc1ccc(Cl)nc1 (stereo not drawn) [AC22] | A (50-100) |
| Cc1cc(/C=C/C(c2cc(Cl)c(Cl)c(Cl)c2)C(F)(F)F)ccc1C(=O)NC1CSC1 (stereo not drawn) [AC23] | A (50-100) |
| Cc1cc(/C=C/C(c2cc(Cl)c(Cl)c(Cl)c2)C(F)(F)F)ccc1C(=O)NCc1cnc(Cl)s1 (stereo not drawn) [AC26] | A (50-100) |
| Cc1cc(/C=C/C(c2cc(Cl)c(Cl)c(Cl)c2)C(F)(F)F)ccc1C(=O)NC(C)(C)c1ccccn1 (stereo not drawn) [AC27] | A (50-100) |
| O=C(NCc1ccc(Cl)nc1)c1ccc(/C=C/C(c2cc(Cl)c(Cl)c(Cl)c2)C(F)(F)F)cc1Cl (stereo not drawn) [AC28] | A (50-100) |
| O=C(NC1CSC1)c1ccc(/C=C/C(c2cc(Cl)c(Cl)c(Cl)c2)C(F)(F)F)cc1Cl (stereo not drawn) [AC29] | A (50-100) |
| O=C(NC1CS(=O)(=O)C1)c1ccc(/C=C/C(c2cc(Cl)c(Cl)c(Cl)c2)C(F)(F)F)cc1Cl (stereo not drawn) [AC30] | A (50-100) |
| O=C(NCc1ccc(Cl)nc1)c1ccc(/C=C/C(c2cc(Cl)c(Cl)c(Cl)c2)C(F)(F)F)cc1Br (stereo not drawn) [AC31] | A (50-100) |
| O=C(NC1CSC1)c1ccc(/C=C/C(c2cc(Cl)c(Cl)c(Cl)c2)C(F)(F)F)cc1Br (stereo not drawn) [AC32] | A (50-100) |
| O=C(NC1CS(=O)(=O)C1)c1ccc(/C=C/C(c2cc(Cl)c(Cl)c(Cl)c2)C(F)(F)F)cc1Br (stereo not drawn) [AC33] | A (50-100) |

| SMILES | BAW Rating |
| --- | --- |
| O=C(NC1CSC1)c1ccc(/C=C/C(c2cc(Cl)c(Cl)c(Cl)c2)C(F)(F)F)cc1C(F)(F)F (stereo not drawn) [AC34] | A (50-100) |
| O=C(NC1CS(=O)(=O)C1)c1ccc(/C=C/C(c2cc(Cl)c(Cl)c(Cl)c2)C(F)(F)F)cc1C(F)(F)F (stereo not drawn) [AC35] | A (50-100) |
| O=C(NCc1ccc(Cl)nc1)c1ccc(/C=C/C(c2cc(Cl)c(Cl)c(Cl)c2)C(F)(F)F)cc1C(F)(F)F (stereo not drawn) [AC36] | A (50-100) |
| Cc1cc(/C=C/C(c2ccc(Cl)c(Cl)c2)C(F)(F)F)ccc1C(=O)NCc1ccc(Cl)nc1 (stereo not drawn) [AC37] | A (50-100) |
| Cc1cc(/C=C/C(c2cc(Cl)c(F)c(Cl)c2)C(F)(F)F)ccc1C(=O)NCc1ccc(Cl)nc1 (stereo not drawn) [AC38] | A (50-100) |
| Cc1cc(/C=C/C(c2cc(Cl)cc(Cl)c2)C(F)(F)F)ccc1C(=O)NCc1cncnc1 (stereo not drawn) [AC39, 4-((E)-3-(3,5-Dichlorophenyl)-4,4,4-trifluorobut-1-enyl)-2-methyl-N-((pyrimidin-5-yl)methyl)benzamide] | A (50-100) |
| Cc1cc(/C=C/C(c2cc(Cl)cc(Cl)c2)C(F)(F)F)ccc1C(=O)NCC(=O)NC1CC1 (stereo not drawn) [AC40] | A (50-100) |
| Cc1cc(/C=C/C(c2cc(Cl)cc(Cl)c2)C(F)(F)F)ccc1C(=O)NCC(=O)NC1CSC1 (stereo not drawn) [AC41] | A (50-100) |
| Cc1cc(/C=C/C(c2cc(Cl)cc(Cl)c2)C(F)(F)F)ccc1C(=O)NCc1nc2ccccc2s1 (stereo not drawn) [AC42] | A (50-100) |
| Cc1cc(/C=C/C(c2cc(Cl)cc(Cl)c2)C(F)(F)F)ccc1C(=O)NCc1cnccn1 (stereo not drawn) [AC43] | A (50-100) |
| Cc1cc(/C=C/C(c2cc(Cl)cc(Cl)c2)C(F)(F)F)ccc1C(=O)NN(C)c1ccccc1F (stereo not drawn) [AC45] | A (50-100) |
| Cc1cc(/C=C/C(c2cc(Cl)cc(Cl)c2)C(F)(F)F)ccc1C(=O)NCc1ccc(Cl)cc1 (stereo not drawn) [AC48] | A (50-100) |
| O=C(NCc1ccc(Cl)nc1)c1ccc(/C=C/C(c2cc(Cl)cc(Cl)c2)C(F)(F)F)cc1F (stereo not drawn) [AC49] | A (50-100) |
| Cc1cc(/C=C/C(c2cc(Cl)cc(Cl)c2)C(F)(F)F)ccc1C(=O)NCc1nccn1C (stereo not drawn) [AC50] | A (50-100) |
| Cc1cc(/C=C/C(c2cc(Cl)cc(Cl)c2)C(F)(F)F)ccc1C(=O)NCC(=O)N(C)CC(F)(F)F (stereo not drawn) [AC51] | A (50-100) |
| Cc1cc(/C=C/C(c2cc(Cl)c(F)c(Cl)c2)C(F)(F)F)ccc1C(=O)NC1CCOCC1 (stereo not drawn) [AC52] | A (50-100) |
| Cc1cc(/C=C/C(c2cc(Cl)c(F)c(Cl)c2)C(F)(F)F)ccc1C(=O)NCc1ccc(Cl)cn1 (stereo not drawn) [AC53] | A (50-100) |
| Cc1cc(/C=C/C(c2cc(Cl)c(F)c(Cl)c2)C(F)(F)F)ccc1C(=O)NCc1ccnc(Cl)c1 (stereo not drawn) [AC54] | A (50-100) |
| CC(C)(C)OC(=O)CNC(=O)c1ccc(/C=C/C(c2cc(Cl)c(Cl)c(Cl)c2)C(F)(F)F)cc1Br (stereo not drawn) [AC58] | A (50-100) |
| Cc1cc(/C=C/C(c2cc(Cl)cc(Cl)c2)C(F)(F)F)ccc1C(=O)Nc1ccc(Cl)nc1 (stereo not drawn) [AC59] | A (50-100) |
| O=C(NC1CSC1)c1ccc(/C=C/C(c2cc(Cl)cc(Cl)c2)C(F)(F)F)cc1F (stereo not drawn) [AC61] | A (50-100) |

| SMILES | BAW Rating |
| --- | --- |
| O=C(CNC(=O)c1ccc(/C=C/C(c2cc(Cl)cc(Cl)c2)C(F)(F)F)cc1F)NCC(F)(F)F (stereo not drawn) [AC62] | A (50-100) |
| O=C(NCc1ccc(Cl)nc1)c1ccc(/C=C/C(c2cc(Cl)c(F)c(Cl)c2)C(F)(F)F)cc1Br (stereo not drawn) [AC63] | A (50-100) |
| O=C(CNC(=O)c1ccc(/C=C/C(c2cc(Cl)c(Cl)c(Cl)c2)C(F)(F)F)cc1Cl)NCC(F)(F)F (stereo not drawn) [AC64, (E)-2-Chloro-N-(2-oxo-2-((2,2,2-trifluoroethyl)amino)ethyl)-4-(4,4,4-trifluoro-3-(3,4,5-trichlorophenyl)but-1-en-1-yl)benzamide] | A (50-100) |
| O=C(NCc1ccc(Cl)nc1)c1ccc(/C=C/C(c2cc(Cl)c(F)c(Cl)c2)C(F)(F)F)cc1F (stereo not drawn) [AC65] | A (50-100) |
| O=C(CNC(=O)c1ccc(/C=C/C(c2cc(Cl)c(Cl)c(Cl)c2)C(F)(F)F)cc1Br)NCC(F)(F)F (stereo not drawn) [AC66] | A (50-100) |
| O=C(NC1CSC1)c1ccc(/C=C/C(c2cc(Cl)c(F)c(Cl)c2)C(F)(F)F)cc1F (stereo not drawn) [AC67] | A (50-100) |
| O=C(CNC(=O)c1ccc(/C=C/C(c2cc(Cl)c(F)c(Cl)c2)C(F)(F)F)cc1F)NCC(F)(F)F (stereo not drawn) [AC68] | A (50-100) |
| Cc1cc(/C=C/C(c2cc(Cl)c(F)c(Cl)c2)C(F)(F)F)ccc1C(=O)NCC(=O)NCC(F)(F)F (stereo not drawn) [AC69] | A (50-100) |
| COc1cc(/C=C/C(c2cc(Cl)c(F)c(Cl)c2)C(F)(F)F)ccc1C(=O)NC1CSC1 (stereo not drawn) [AC71] | A (50-100) |
| CCc1cc(/C=C/C(c2cc(Cl)c(F)c(Cl)c2)C(F)(F)F)ccc1C(=O)NCc1ccc(Cl)nc1 (stereo not drawn) [AC72] | A (50-100) |
| O=C(NCc1ccc(C(F)(F)F)nc1)c1ccc(/C=C/C(c2cc(Cl)c(Cl)c(Cl)c2)C(F)(F)F)cc1Br (stereo not drawn) [AC75] | A (50-100) |
| Cc1cc(/C=C/C(c2cc(Cl)c(F)c(Cl)c2)C(F)(F)F)ccc1C(=O)NCc1cc(Cl)ccn1 (stereo not drawn) [AC77] | A (50-100) |
| Cc1cc(/C=C/C(c2cc(Cl)c(Cl)c(Cl)c2)C(F)(F)F)ccc1C(=O)NCC(=O)NCC(F)(F)F (stereo not drawn) [AC78] | A (50-100) |
| O=C(CNC(=O)c1ccc(/C=C/C(c2cc(Cl)c(F)c(Cl)c2)C(F)(F)F)cc1Br)NCC(F)(F)F (stereo not drawn) [AC79, (E)-2-Bromo-4-(3-(3,5-dichloro-4-fluorophenyl)-4,4,4-trifluorobut-1-en-1-yl)-N-(2-oxo-2-((2,2,2-trifluoroethyl)amino)ethyl)benzamide] | A (50-100) |
| CCc1cc(/C=C/C(c2cc(Cl)c(F)c(Cl)c2)C(F)(F)F)ccc1C(=O)NCC(=O)NCC(F)(F)F (stereo not drawn) [AC80] | A (50-100) |
| Cc1cc(/C=C/C(c2cc(Cl)cc(Cl)c2)C(F)(F)F)ccc1C(=O)NCC(=O)NC1CS(=O)(=O)C1 (stereo not drawn) [AC81] | A (50-100) |
| O=C(NC1CS(=O)(=O)C1)c1ccc(/C=C/C(c2cc(Cl)cc(Cl)c2)C(F)(F)F)cc1F (stereo not drawn) [AC83, (E)-4-(3-(3,5-Dichlorophenyl)-4,4,4-trifluorobut-1-en-1-yl)-N-(1,1-dioxidothietan-3-yl)-2-fluorobenzamide] | A (50-100) |
| O=C(NC1CS(=O)(=O)C1)c1ccc(/C=C/C(c2cc(Cl)c(F)c(Cl)c2)C(F)(F)F)cc1F (stereo not drawn) [AC84] | A (50-100) |
| COc1cc(/C=C/C(c2cc(Cl)c(F)c(Cl)c2)C(F)(F)F)ccc1C(=O)NC1CS(=O)(=O)C1 (stereo not drawn) [AC85] | A (50-100) |
| CCc1cc(/C=C/C(c2cc(Cl)c(F)c(Cl)c2)C(F)(F)F)ccc1C(=O)NC1CS(=O)(=O)C1 (stereo not drawn) [AC86] | A (50-100) |
| O=C(NC1C[S+]([O-])C1)c1ccc(/C=C/C(c2cc(Cl)c(F)c(Cl)c2)C(F)(F)F)cc1F (stereo not drawn) [AC87] | A (50-100) |
